# Biological target: T1, yeast channel-forming VDAC isoform (YVDAC1) (Saccharomyces cerevisiae, UniProt P04840)
# T1 construct: gene POR1; native protein from detergent (NP-40) extract of mitochondrial fraction; about 30 kDa; identified by LC/MS/MS against SGD ORF translations
# T1 sequence (P04840 2-283): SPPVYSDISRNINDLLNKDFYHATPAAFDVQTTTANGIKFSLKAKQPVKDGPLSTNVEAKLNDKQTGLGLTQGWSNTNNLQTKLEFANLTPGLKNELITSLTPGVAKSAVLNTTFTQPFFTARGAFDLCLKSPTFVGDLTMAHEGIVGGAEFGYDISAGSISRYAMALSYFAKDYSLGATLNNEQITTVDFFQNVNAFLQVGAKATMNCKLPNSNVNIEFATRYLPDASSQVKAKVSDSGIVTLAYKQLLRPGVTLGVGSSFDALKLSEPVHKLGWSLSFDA
# Assay type: biochemical
smiles,measurement,value
COc1cc2c(cc1OC)OC(C)(C)C=C2 [Precocene II],"affinity magnetic beads, elution and competition with free compound, SDS-PAGE, L",identification of YVDAC1 as the precocene II-binding protein in the yeast S. cerevisiae

# — PMC4527739 (PLoS ONE, 2015)
